Experiment: molar heat capacity at saturation pressure

CCCCn1cc[n+](C)c1.Cc1ccc(S(=O)(=O)[O-])cc1 [1-butyl-3-methylimidazolium tosylate]
Settings	molar heat capacity [J/K/mol]
5.19 K, Crystal 2	2.822
5.39 K, Crystal 2	3.132
5.69 K, Crystal 2	3.579
5.99 K, Crystal 2	4.042
6.33 K, Crystal 2	4.588
6.71 K, Crystal 2	5.224
7.1 K, Crystal 2	5.913
7.49 K, Crystal 2	6.618
7.88 K, Crystal 2	7.372
8.27 K, Crystal 2	8.155
8.67 K, Crystal 2	8.98
9.06 K, Crystal 2	9.831
9.46 K, Crystal 2	10.7
9.86 K, Crystal 2	11.58
10.37 K, Crystal 2	12.77
10.99 K, Crystal 2	14.2
11.62 K, Crystal 2	15.75
12.24 K, Crystal 2	17.23
12.87 K, Crystal 2	18.81
13.5 K, Crystal 2	20.4
14.13 K, Crystal 2	22.01
14.77 K, Crystal 2	23.69
15.52 K, Crystal 2	25.71
16.38 K, Crystal 2	28.11
17.25 K, Crystal 2	30.43
18.11 K, Crystal 2	32.69
18.98 K, Crystal 2	34.95
19.85 K, Crystal 2	37.28
21.02 K, Crystal 2	40.42
22.47 K, Crystal 2	44.36
23.94 K, Crystal 2	48.42
25.4 K, Crystal 2	52.37
26.86 K, Crystal 2	56.28
27.91 K, Crystal 2	59.01
29.13 K, Crystal 2	62.18
30.61 K, Crystal 2	65.96
32.24 K, Crystal 2	70.12
34.04 K, Crystal 2	74.47
35.85 K, Crystal 2	78.78
37.65 K, Crystal 2	82.79
39.46 K, Crystal 2	86.82
41.36 K, Crystal 2	90.86
43.36 K, Crystal 2	95.05
45.37 K, Crystal 2	99.18
47.37 K, Crystal 2	103.21
49.38 K, Crystal 2	107.12
51.39 K, Crystal 2	110.88
53.4 K, Crystal 2	114.57
55.41 K, Crystal 2	118.11
57.43 K, Crystal 2	121.56
59.46 K, Crystal 2	124.97
61.48 K, Crystal 2	128.2
63.5 K, Crystal 2	131.49
65.48 K, Crystal 2	134.6
67.5 K, Crystal 2	137.79
69.52 K, Crystal 2	140.83
71.55 K, Crystal 2	143.85
73.58 K, Crystal 2	146.89
75.61 K, Crystal 2	149.84
77.64 K, Crystal 2	152.66
78.3 K, Crystal 2	153.84
78.41 K, Crystal 2	154.03
78.68 K, Metastable crystal	155.18
79.68 K, Crystal 2	155.55
80.29 K, Crystal 2	156.42
80.4 K, Crystal 2	156.6
80.63 K, Crystal 2	156.82
80.67 K, Metastable crystal	157.91
81.72 K, Crystal 2	158.34
82.14 K, Crystal 2	158.9
82.25 K, Crystal 2	158.9
82.53 K, Metastable crystal	160.36
82.63 K, Crystal 2	159.37
83.76 K, Crystal 2	161.26
84.01 K, Crystal 2	161.35
84.11 K, Crystal 2	161.51
84.39 K, Metastable crystal	163.15
84.49 K, Crystal 2	161.88
85.88 K, Crystal 2	163.77
85.98 K, Crystal 2	164.02
86.26 K, Metastable crystal	165.85
86.36 K, Crystal 2	164.39
87.76 K, Crystal 2	166.29
87.86 K, Crystal 2	166.47
88.14 K, Metastable crystal	168.4
88.24 K, Crystal 2	166.85
89.65 K, Crystal 2	168.77
89.74 K, Crystal 2	168.83
90.02 K, Metastable crystal	171.1
90.12 K, Crystal 2	169.39
91.54 K, Crystal 2	171.25
91.63 K, Crystal 2	171.32
91.92 K, Metastable crystal	173.77
92.02 K, Crystal 2	171.84
93.45 K, Crystal 2	173.71
93.54 K, Crystal 2	173.8
93.82 K, Metastable crystal	176.53
93.92 K, Crystal 2	174.27
95.36 K, Crystal 2	176.16
95.45 K, Crystal 2	176.25
95.72 K, Metastable crystal	179.17
95.83 K, Crystal 2	176.69
97.28 K, Crystal 2	178.64
97.37 K, Crystal 2	178.7
97.64 K, Metastable crystal	181.78
97.75 K, Crystal 2	179.08
99.21 K, Crystal 2	181.03
99.29 K, Crystal 2	181.06
99.55 K, Metastable crystal	184.48
99.67 K, Crystal 2	181.44
101.08 K, Crystal 2	183.3
101.16 K, Crystal 2	183.36
101.42 K, Metastable crystal	187.02
101.54 K, Crystal 2	183.8
102.89 K, Crystal 2	185.56
102.98 K, Crystal 2	185.56
103.22 K, Metastable crystal	189.6
103.36 K, Crystal 2	186.06
104.71 K, Crystal 2	187.86
104.79 K, Crystal 2	187.86
105.03 K, Metastable crystal	192.05
105.18 K, Crystal 2	188.27
106.53 K, Crystal 2	190.03
106.61 K, Crystal 2	190.07
106.84 K, Metastable crystal	194.54
107 K, Crystal 2	190.5
108.37 K, Crystal 2	192.21
108.44 K, Crystal 2	192.24
108.66 K, Metastable crystal	197.08
108.83 K, Crystal 2	192.7
110.2 K, Crystal 2	194.41
110.27 K, Crystal 2	194.41
110.48 K, Metastable crystal	199.56
110.67 K, Crystal 2	194.88
112.03 K, Crystal 2	196.58
112.1 K, Crystal 2	196.52
112.31 K, Metastable crystal	201.92
112.5 K, Crystal 2	197.14
113.87 K, Crystal 2	198.73
113.94 K, Crystal 2	198.82
114.13 K, Metastable crystal	204.5
114.34 K, Crystal 2	199.29
115.71 K, Crystal 2	200.99
115.78 K, Crystal 2	201.09
115.96 K, Metastable crystal	207.01
116.18 K, Crystal 2	201.52
117.56 K, Crystal 2	203.23
117.62 K, Crystal 2	203.17
117.79 K, Metastable crystal	209.47
118.02 K, Crystal 2	203.66
119.41 K, Crystal 2	205.4
119.46 K, Crystal 2	205.31
119.62 K, Metastable crystal	212.17
119.87 K, Crystal 2	205.87
121.26 K, Crystal 2	207.48
121.3 K, Crystal 2	207.51
121.45 K, Metastable crystal	214.65
121.71 K, Crystal 2	208.04
123.11 K, Crystal 2	209.71
123.16 K, Crystal 2	209.78
123.28 K, Metastable crystal	217.2
123.56 K, Crystal 2	210.24
124.97 K, Crystal 2	211.95

From the NIST ThermoML archive (doi:10.1021/je700152c)
